# In US9457044B2, “Methods and compositions for wound healing” (CoDa Therapeutics, Inc., priority 2006, dated 2016):
# Assays:
# BrdU-positive cells = assay: BrdU labeling of proliferating cells at wound sites; assay type: in vivo, mice
# Description: (§1) Male, 8 week old, ICR mice were used in the following experiments. All the mice were kept under specific pathogen-free conditions in an environmentally controlled clean room at University College London and all the experiments were carried out under UK Home Office regulations. Mice were anaesthetized by halothane inhalation. Four full-thickness excisional wounds of 6 mm diameter were made on the shaved back on either side of the dorsal midline with a 6 mm biopsy punch (Kai Industries). To each pair of wounds a single topical application of 50 μl of 1 μM Cx43 as ODN (SEQ. ID No. 2) (Sigma-Genosys) in 30% Pluronic F-127 gel (Sigma-Aldrich), chilled on ice, was made to one wound, and an identical application of 1 μM sense control sODNs was made to the other. […] R. and Becker, D. L. (2003). Targeting connexin 43 expression accelerates the rate of wound repair. Curr Biol 13, 1697-703). Each wound region was digitally photographed at the indicated time intervals, and the areas of the wounds were calculated. All wound areas were expressed as percentages of the initial wound areas. In some series of experiments, wounds and their surrounding area, including the scab and epithelial margins, were harvested with an 8 mm biopsy punch (Kai Industries) at the indicated time intervals after mice were killed with an overdose of chloroform. A minimum of eight mice were used for each time point examined.
# In another experiment, wounded mice were injected intraperitoneally with 1 ml of BrdU (Sigma) in PBS solution (1 mg/ml) 2 hours before harvesting on days 1, 2, and 7. Wound tissues were fixed in 4% formaldehyde buffered with PBS, and embedded in paraffin. Deparaffinized sections (6 μm thick) were treated with a HistoMouse™-Plus Kit (ZYMED Laboratories, Inc) to reduce background signals according to manufacturer's instructions. […]
# A treatment-blinded observer counted MPO-positive neutrophils and F4/80-positive macrophages in the wound bed (defined as the area surrounded by unwounded skin, fascia, regenerated epidermis, and eschar) in 3 random high-power fields of 0.332 mm^2. BrdU-positive cells in the wound margin and the nascent epidermis regions of each immunohistochemically stained section were counted as described previously and expressed per […] of epidermis (Mori, R., Kondo, T., Nishie, T., Ohshima, T. and Asano, M. (2004). Impairment of skin wound healing in beta-1,4-galactosyltransferase-deficient mice with reduced leukocyte recruitment. Am J Pathol 164, 1303-14). Number of fibroblast like cells (phalloidin-positive cells with spindle-shape body) at the wound margin were counted in high-power fields also (each field was 0.332 mm^2). […] Images were made binary at a standard threshold and positive pixels were counted using Image J (NIH Image).
# Ccl2 mRNA = assay: Real-Time PCR of Ccl2 at wound sites; assay type: in vivo, mice; details: day 2; P<0.05 versus control sODN
# Description: as §1, with “In some series of experiments, wounds and their surrounding area, including the scab and epithelial margins, were harvested with an 8 mm biopsy punch (Kai Industries) at the indicated time intervals after mice were killed with an overdose of chloroform. A minimum of eight mice were used for each time point examined.” left out
# (§2) Gene specific primers and probe were obtained as TaqMan® Gene Expression Assays (Applied Biosystems) for Cx43, Ccl2, Co1α1, TNFα and TGFβ1. […] Each sample was analyzed in duplicate. […]
# TNF-α mRNA = assay: Real-Time PCR of TNF-α at wound sites; assay type: in vivo, mice; details: day 7; P<0.05 versus control sODN
# Description: as §1, with “In some series of experiments, wounds and their surrounding area, including the scab and epithelial margins, were harvested with an 8 mm biopsy punch (Kai Industries) at the indicated time intervals after mice were killed with an overdose of chloroform. A minimum of eight mice were used for each time point examined.” left out
# as §2
# [1] = test system: human limbal epithelial cells; assay: Human limbal rim-denuded pig stromal matrix chimera re-epithelialisation; assay type: cell-based; details: treated at day one; controls 7 to 14 days
# Description: Human limbal rims returned from surgery after excision of the central corneas for keratoplasty (transplant) were placed into air liquid interface organotypic culture and a denuded pig stromal extracellular matrix inserted into the central region (FIG. 14). The pig stromal matrix was denuded (cells removed) by freeze-thawing in liquid nitrogen.
# The chimeras were grown for up to 2 weeks at which time the human limbal epithelial cells have re-epithelialised the pig stroma with a normal 5-7 cell layer fully differentiated epithelium. In addition, human limbal stromal keratocytes have proliferated and migrated across the limbal rim—stromal insert to repopulate the pig stromal matrix with human keratocytes.
# In a further experiment the chimeras were treated with connexin 43 specific antisense ODNs at day one.
# IGF-7 = assay: Growth factor/cytokine antibody array of chimera: IGF-7; assay type: cell-based, human; details: after two weeks in culture
# Description: (§3) Cell denuded pig stroma chimeras were cultured for two weeks and then assessed using a growth factor/cytokine antibody array (measures protein levels of 120 different growth factors/cytokines.
# (§4) After two weeks in culture the chimeras were cut in half: one half for histological analysis, and the other for growth factor and cytokine array analysis. For growth factor and cytokine analysis the central stromal region (with fully recovered human cell epithelium) and partially repopulated stroma (human keratocytes) was removed and homogenised separately from the human limbal rim which contains stem cell populations. The homogenates were run on a growth factor/cytokine array (FIG. 15) and analysis of growth factor levels performed using densitometry analysis of the array membranes.
# IGFBP-2 = assay: Growth factor/cytokine antibody array of chimera: IGFBP-2; assay type: cell-based, human; details: after two weeks in culture
# Description: as §3, §4
sequence,measurement,setting,value
"GTAATTGCGGCAGGAGGAATTGTTTCTGTC (antisense GTAATTGCGGCAGGAGGAATTGTTTCTGTC; in Pluronic F-127 gel, further chemistry not given here) [Cx43 asODN]","keratinocyte proliferation in the epidermal wound margin, control versus treated",BrdU-positive cells; FIG. 2E,little difference
same,BrdU-positive cells in the dermal wound margin,BrdU-positive cells; FIG. 2G,slightly more cells
same,BrdU-positive cells in the nascent epidermis,BrdU-positive cells; after both 2 days and 7 days,significantly increased numbers
same,BrdU-positive cells in the granulation tissue,BrdU-positive cells; days 1 and 2,significantly more
same,expression level of Ccl2 mRNA,Ccl2 mRNA,significantly reduced
same,expression level of TNF-α mRNA,TNF-α mRNA,significantly reduced
same,time to full epithelial covering of the pig stroma,[1],≤ 3 days
same,level of IGF-7 in chimeric stroma compared with untreated controls,IGF-7,very high levels
same,level of IGFBP-2 in limbal rim and stroma compared with untreated controls,IGFBP-2,higher levels
